Test results as given in patent publication US9308195B2, “Non-aqueous taxane formulations and methods of using the same” (Teikoku Pharma USA, Inc., priority 2012, dated 2016).

Test: Solubility of anhydrous docetaxel in PEG 400 or PEG 300
Assay type: physicochemical
Details: per 1 g of PEG 300; ultrasonic dispersion for 5 minutes at 70-80° C.
Method: Formulations of anhydrous docetaxel and either PEG 400 or PEG 300 were prepared and mixed using ultrasonic dispersion for 5 minutes at 70-80° C. 1 g of PEG 400 dissolved 25 mg of anhydrous docetaxel. […] 1 g of PEG 300 dissolved 100 mg of anhydrous docetaxel. Accordingly, PEG 300 was able to better solubilize anhydrous docetaxel.

CC(=O)O[C@@]12CO[C@@H]1C[C@H](O)[C@@]1(C)C(=O)[C@H](O)C3=C(C)[C@@H](OC(=O)[C@H](O)[C@@H](NC(=O)OC(C)(C)C)c4ccccc4)C[C@@](O)([C@@H](OC(=O)c4ccccc4)[C@H]21)C3(C)C [anhydrous docetaxel, (2R,3S)-N-carboxy-3-phenylisoserine,Ntert-butyl ester, 13-ester with 5β-20-epoxy-1,2α,4,7β,10β,13α-hexahydroxytax-11-en-9-one 4-acetate 2-benzoate]
amount of anhydrous docetaxel dissolved by 1 g of PEG 300: ≥ 100 mg
